Tests used:
[1] = molecular target: isolated recombinant JAK1 kinase domain (Homo sapiens (Human), UniProt P23458); experiment: JAK1 enzyme assay (Caliper LabChip, peptide phosphorylation); assay type: biochemical; details: isolated recombinant JAK1 kinase domain, 25 μM ATP
[2] = molecular target: isolated recombinant JAK2 kinase domain (Homo sapiens (Human), UniProt O60674); experiment: JAK2 enzyme assay (Caliper LabChip, peptide phosphorylation); assay type: biochemical; details: 25 μM ATP
[3] = tested on: JAK1-dependent STAT6 phosphorylation downstream of IL-13 stimulation in BEAS-2B human bronchial epithelial cells; experiment: JAK1 pathway assay in BEAS-2B cells (IL-13-pSTAT6, MSD); assay type: cell-based; details: read-out: IL13-pSTAT6 EC50 (uM)_BEAS-2B
Method in brief: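 TF-1 cells starved of GM-CSF overnight, assayed serum-free; BEAS-2B cells in complete growth medium. Lysate pSTAT6 measured by MSD; EC50 derived.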

Sequence of isolated recombinant JAK1 kinase domain (P23458 875-1153): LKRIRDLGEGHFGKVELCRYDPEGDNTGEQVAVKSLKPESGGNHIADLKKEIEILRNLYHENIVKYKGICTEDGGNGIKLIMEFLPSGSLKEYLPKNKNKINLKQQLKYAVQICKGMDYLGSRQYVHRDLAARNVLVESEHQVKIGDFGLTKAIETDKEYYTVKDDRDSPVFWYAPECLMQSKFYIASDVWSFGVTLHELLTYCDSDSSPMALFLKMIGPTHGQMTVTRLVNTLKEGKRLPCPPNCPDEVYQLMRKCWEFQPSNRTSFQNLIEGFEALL
Sequence of isolated recombinant JAK2 kinase domain (O60674 849-1124): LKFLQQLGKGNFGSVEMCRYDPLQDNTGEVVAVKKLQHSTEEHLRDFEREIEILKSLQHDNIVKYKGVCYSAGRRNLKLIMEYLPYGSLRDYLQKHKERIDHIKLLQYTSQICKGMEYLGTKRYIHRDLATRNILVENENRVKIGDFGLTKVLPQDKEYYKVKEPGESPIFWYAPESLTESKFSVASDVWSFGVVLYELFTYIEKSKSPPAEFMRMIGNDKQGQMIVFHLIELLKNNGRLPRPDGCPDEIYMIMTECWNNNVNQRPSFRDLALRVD

Ki [1]	Ki [2]	SMILES	EC50 [3]
0.66 nM	1.03 nM	CC1CN(C(=O)Cn2cc(NC(=O)c3cnn4cccnc34)c(-c3cc(Cl)ccc3OC(F)F)n2)CCN1C (stereo not drawn) [Example 376, N-[3-[5-chloro-2-(difluoromethoxy)phenyl]-1-[2-(3,4-dimethylpiperazin-1-yl)-2-oxoethyl]-1H-pyrazol-4-yl]pyrazolo[1,5-a]pyrimidine-3-carboxamide]	0.0325 µM
0.56 nM	1.3 nM	CN1CCN(C(=O)Cn2cc(NC(=O)c3cnn4cccnc34)c(-c3cc(Cl)ccc3OC(F)F)n2)C(C)(C)C1 [Example 377, N-[3-[5-chloro-2-(difluoromethoxy)phenyl]-1-[2-oxo-2-(2,2,4-trimethylpiperazin-1-yl)ethyl]-1H-pyrazol-4-yl]pyrazolo[1,5-a]pyrimidine-3-carboxamide]	0.0528 µM
0.93 nM	1.6 nM	CN1CCN(C(=O)Cn2cc(NC(=O)c3cnn4cccnc34)c(-c3cc(Cl)ccc3OC(F)F)n2)CC1(C)C [Example 378, N-[3-[5-chloro-2-(difluoromethoxy)phenyl]-1-[2-oxo-2-(3,3,4-trimethylpiperazin-1-yl)ethyl]-1H-pyrazol-4-yl]pyrazolo[1,5-a]pyrimidine-3-carboxamide]	0.0874 µM
0.86 nM	2.33 nM	CN(C)CCN1CCN(C(=O)Cn2cc(NC(=O)c3cnn4cccnc34)c(-c3cc(Cl)ccc3OC(F)F)n2)CC1 [Example 379, N-[3-[5-chloro-2-(difluoromethoxy)phenyl]-1-(2-[4-[2-(dimethylamino)ethyl]piperazin-1-yl]-2-oxoethyl)-1H-pyrazol-4-yl]pyrazolo[1,5-a]pyrimidine-3-carboxamide]	0.0755 µM
0.3 nM	0.68 nM	O=C(Nc1cn(CC(=O)N2CCN(Cc3ncco3)CC2)nc1-c1cc(Cl)ccc1OC(F)F)c1cnn2cccnc12 [Example 380, N-[3-[5-chloro-2-(difluoromethoxy)phenyl]-1-[2-[4-(1,3-oxazol-2-ylmethyl)piperazin-1-yl]-2-oxoethyl]-1H-pyrazol-4-yl]pyrazolo[1,5-a]pyrimidine-3-carboxamide]	0.0481 µM
1.07 nM	0.55 nM	O=C1CCC(CNCCn2cc(NC(=O)c3cnn4cccnc34)c(-c3cc(Cl)ccc3OC(F)F)n2)O1 (stereo not drawn) [Example 381, N-[3-[5-chloro-2-(difluoromethoxy)phenyl]-1-(2-[[(5-oxooxolan-2-yl)methyl]amino]ethyl)-1H-pyrazol-4-yl]pyrazolo[1,5-a]pyrimidine-3-carboxamide]	0.0298 µM
0.34 nM	0.75 nM	O=C1CCC(CN2CCN(C(=O)Cn3cc(NC(=O)c4cnn5cccnc45)c(-c4cc(Cl)ccc4OC(F)F)n3)CC2)O1 (stereo not drawn) [Example 382, N-[3-[5-chloro-2-(difluoromethoxy)phenyl]-1-(2-oxo-2-[4-[(5-oxooxolan-2-yl)methyl]piperazin-1-yl]ethyl)-1H-pyrazol-4-yl]pyrazolo[1,5-a]pyrimidine-3-carboxamide]	0.0257 µM
0.39 nM	0.66 nM	CNC(=O)CN1CCN(C(=O)Cn2cc(NC(=O)c3cnn4cccnc34)c(-c3cc(Cl)ccc3OC(F)F)n2)CC1 [Example 383, N-[3-[5-chloro-2-(difluoromethoxy)phenyl]-1-(2-[4-[(methylcarbamoyl)methyl]piperazin-1-yl]-2-oxoethyl)-1H-pyrazol-4-yl]pyrazolo[1,5-a]pyrimidine-3-carboxamide]	0.277 µM
1.06 nM	0.56 nM	COC(=O)CNCCn1cc(NC(=O)c2cnn3cccnc23)c(-c2cc(Cl)ccc2OC(F)F)n1 [Example 386, methyl 2-[(2-[3-[5-chloro-2-(difluoromethoxy)phenyl]-4-[pyrazolo[1,5-a]pyrimidine-3-amido]-1H-pyrazol-1-yl]ethyl)amino]acetate]	0.0297 µM
1.24 nM	0.46 nM	COC(=O)[C@@H](N)CCn1cc(NC(=O)c2cnn3cccnc23)c(-c2cc(Cl)ccc2OC(F)F)n1 [Example 387, methyl (2S)-2-amino-4-[3-[5-chloro-2-(difluoromethoxy)phenyl]-4-[pyrazolo[1,5-a]pyrimidine-3-amido]-1H-pyrazol-1-yl]butanoate]	0.0107 µM
0.51 nM	2.42 nM	CN1CCC(COC(=O)C2CCN(C(=O)Cn3cc(NC(=O)c4cnn5cccnc45)c(-c4cc(Cl)ccc4OC(F)F)n3)CC2)CC1 [Example 388, (1-methylpiperidin-4-yl)methyl 1-(2-[3-[5-chloro-2-(difluoromethoxy)phenyl]-4-[pyrazolo[1,5-a]pyrimidine-3-amido]-1H-pyrazol-1-yl]acetyl)piperidine-4-carboxylate]	0.0241 µM
0.4 nM	2.16 nM	CN1CCC(COC(=O)C2(C)CCN(C(=O)Cn3cc(NC(=O)c4cnn5cccnc45)c(-c4cc(Cl)ccc4OC(F)F)n3)CC2)CC1 [Example 389, (1-methylpiperidin-4-yl)methyl 1-(2-[3-[5-chloro-2-(difluoromethoxy)phenyl]-4-[pyrazolo[1,5-a]pyrimidine-3-amido]-1H-pyrazol-1-yl]acetyl)-4-methylpiperidine-4-carboxylate]	0.0175 µM
1.28 nM	0.84 nM	CN(CCn1cc(NC(=O)c2cnn3cccnc23)c(-c2cc(Cl)ccc2OC(F)F)n1)CC1CCC(=O)O1 (stereo not drawn) [Example 390, N-[3-[5-chloro-2-(difluoromethoxy)phenyl]-1-(2-[methyl[(5-oxooxolan-2-yl)methyl]amino]ethyl)-1H-pyrazol-4-yl]pyrazolo[1,5-a]pyrimidine-3-carboxamide]	0.0424 µM
0.91 nM	2.49 nM	CCOC(=O)CCN(C)C1CCN(C(=O)Cn2cc(NC(=O)c3cnn4cccnc34)c(-c3cc(Cl)ccc3OC(F)F)n2)CC1 [Example 391, ethyl 3-[[1-(2-[3-[5-chloro-2-(difluoromethoxy)phenyl]-4-[pyrazolo[1,5-a]pyrimidine-3-amido]-1H-pyrazol-1-yl]acetyl)piperidin-4-yl](methyl)amino]propanoate]	0.0206 µM
0.4 nM	0.77 nM	O=C1CC(N2CCN(C(=O)Cn3cc(NC(=O)c4cnn5cccnc45)c(-c4cc(Cl)ccc4OC(F)F)n3)CC2)CO1 (stereo not drawn) [Example 392, N-[3-[5-chloro-2-(difluoromethoxy)phenyl]-1-[2-oxo-2-[4-(5-oxooxolan-3-yl)piperazin-1-yl]ethyl]-1H-pyrazol-4-yl]pyrazolo[1,5-a]pyrimidine-3-carboxamide]	0.0261 µM
0.38 nM	0.89 nM	O=C(Nc1cn(CC(=O)N2CCC(N3CCOCC3)CC2)nc1-c1cc(Cl)ccc1OC(F)F)c1cnn2cccnc12 [Example 393, N-[3-[5-chloro-2-(difluoromethoxy)phenyl]-1-[2-[4-(morpholin-4-yl)piperidin-1-yl]-2-oxoethyl]-1H-pyrazol-4-yl]pyrazolo[1,5-a]pyrimidine-3-carboxamide]	0.0115 µM
0.87 nM	0.61 nM	O=C(Nc1cn(C/C=C/CN2CCOCC2)nc1-c1cc(Cl)ccc1OC(F)F)c1cnn2cccnc12 [Example 394, N-[3-[5-chloro-2-(difluoromethoxy)phenyl]-1-[(2E)-4-(morpholin-4-yl)but-2-en-1-yl]-1H-pyrazol-4-yl]pyrazolo[1,5-a]pyrimidine-3-carboxamide]	0.0311 µM

Reference: patent US9346815B2, “5-chloro-2-difluoromethoxyphenyl pyrazolopyrimidine compounds, compositions and methods of use thereof” (Genentech, Inc., priority 2014, dated 2016)
